Data taken from patent publication EP0517225A1, “Aminopyrrolidine platinum compounds, a process for preparing them and pharmaceutical compositions containing them” (priority 1991, dated 1992).

Experiments:
[1] = tested on: E.coli bacterial strain, AB2463 mutant strain (RecA); assay: Mutagenicity test: mortality of RecA-deficient E. coli strain; assay type: cell-based; details: RecA strain AB2463, treated for 2 hours at 37 °C
Method: A summary of results in mutagenicity and acute toxicity tests is given hereinbelow. a) Mutagenicity tests: E.coli bacterial strain, AB2463 mutant strain (RecA) was used. […] RecA strain, AB2463 mutant strain, which is defective in the recombination and induction of SOS system, was treated for 2 hours at 37^ºC with compounds of the present invention. […]

male BDF₁ mice = assay: Acute toxicity test, LD50 i.p. (Litchfield-Wilcoxon method); assay type: in vivo; details: 6-7 week-old male BDF₁ mice, 18-22 g

Compound | LD₁₀ [1] [µM] | LD₅₀ [1] [µM] | LD₉₀ [1] [µM] | LD₅₀ (male BDF₁ mice) [mg/kg]
CC1C(N)CCN1C.[Cl][Pt][Cl] (stereo not drawn) [Example 1, Cis-dichloro(3-amino-1,2-dimethylpyrrolidine)platinum^(II)] | >1.2 | 5.98 | 13.15 | 95.02
CCC1C(N)CCN1CC.[Cl][Pt][Cl] (stereo not drawn) [Example 4, Cis-dichloro(3-amino-1,2-diethylpyrrolidine)platinum^(II)] | 18.97 | 35.57 | 72.33 | 113.81
N.N.[Cl][Pt][Cl] [Cisplatin, reference compound] | 5.72 | 17.0 | 56.0 | 
CCC1C(N)CCN1C.[Cl][Pt][Cl] (stereo not drawn) [Example 3, Cis-dichloro(3-amino-2-ethyl-1-methylpyrrolidine)platinum^(II)] | 10.74 | 17.89 | 35.78 | 82.72
CCN1CCC(N)C1C.[Cl][Pt][Cl] (stereo not drawn) [Example 2, Cis-dichloro(3-amino-1-ethyl-2-methylpyrrolidine)platinum^(II)] | 15.86 | 57.08 | 301.27 | 60.95
N.N.O=C([O-])C1(C(=O)[O-])CCC1.[Pt+2] [Carboplatin, reference compound] | 71.53 | 606.0 | 1599 | 117.5
